PMC8286840, “Identifying SARS-CoV-2 antiviral compounds by screening for small molecule inhibitors of Nsp3 papain-like protease” (Biochemical Journal, 2021)
Structures can show the parent of a compound that is named as a salt. Where two headings read alike, the source gives them in different places. Where a SMILES comes first, the peptide text is derived from it. The star is where a group is joined. Cbz = O=C(OCc1ccccc1)*

How the values were obtained:
[1] = biological target: T1, SARS-CoV-2 PLpro (nsp3 1564–1878) (Severe acute respiratory syndrome coronavirus 2, UniProt P0DTD1); assay: biochemical; set-up: FRET-quenched peptide (Pro3) cleavage by PLpro, 10 min pre-incubation, slope over 20 min, normalised to no-compound control; settings: read-out: % of control remaining
[2] = biological target: T1, SARS-CoV-2 PLpro (nsp3 1564–1878); assay: biochemical; set-up: FRET-quenched peptide (Pro3) cleavage by PLpro, 10 min pre-incubation, slope over 20 min, normalised to no-compound control; settings: read-out: % of control remaining; remark: listed apart in the source

SMILES: CC1=C2[C@H]3OC(=O)[C@@H](C)[C@@H]3CC[C@@]2(C)C=CC1=O [Santonin]
- remaining activity at 1.25 µM ([1]; Well no.=3717, low concentration screen): 90%
- remaining activity at 3.75 µM ([2]; Well no.=3717, high concentration screen): 95.8%

SMILES: CC(C)c1noc(N2CCC(COc3ccc(-c4ccc(S(C)(=O)=O)cc4)nc3)CC2)n1 [GSK1292263]
- remaining activity at 1.25 µM ([1]; Well no.=5106, low concentration screen): 93.1%
- remaining activity at 1.25 µM ([1]; Well no.=8539, low concentration screen): 105%
- remaining activity at 3.75 µM ([2]; Well no.=5106, high concentration screen): 97.1%
- remaining activity at 3.75 µM ([2]; Well no.=8539, high concentration screen): 104%

SMILES: NCCc1cc(O)c(O)cc1O [Oxidopamine (hydrobromide)]
- remaining activity at 1.25 µM ([1]; Well no.=6940, low concentration screen): 92%
- remaining activity at 3.75 µM ([2]; Well no.=6940, high concentration screen): 92.3%

SMILES: CCOC(=O)c1ncn2c1CN(C)C(=O)c1cc(F)ccc1-2 [Flumazenil]
- remaining activity at 1.25 µM ([1]; Well no.=517, low concentration screen): 104%
- remaining activity at 1.25 µM ([1]; Well no.=1575, low concentration screen): 103%
- remaining activity at 3.75 µM ([2]; Well no.=517, high concentration screen): 106%
- remaining activity at 3.75 µM ([2]; Well no.=1575, high concentration screen): 102%

SMILES: CCN1C[C@]2(COC)[C@H](O)C[C@H](OC)[C@@]34[C@@H]5C[C@@]6(O)[C@H](OC(=O)c7ccccc7)[C@@H]5[C@@](OC(C)=O)([C@@H]([C@H](OC)[C@H]23)[C@@H]14)[C@@H](O)[C@@H]6OC [Aconitine]
- remaining activity at 1.25 µM [1]: 96%
- remaining activity at 3.75 µM [2]: 98.5%

SMILES: O=C1Nc2ccc(Cl)cc2/C1=C/c1cc(Cl)c(O)c(Cl)c1 [PKR Inhibitor, Negative Control]
- remaining activity at 1.25 µM ([1]; Well no.=2513, low concentration screen): 96.5%
- remaining activity at 3.75 µM ([2]; Well no.=2513, high concentration screen): 99%

SMILES: Cc1ccc2c(c1)C(N1CCN(C)CC1)=Nc1cccnc1N2 [JL-18]
- remaining activity at 1.25 µM ([1]; Well no.=781, low concentration screen): 107%
- remaining activity at 3.75 µM ([2]; Well no.=781, high concentration screen): 103%

SMILES: CCc1cc(Nc2nccc(-c3c(-c4ccc(OC)c(C(=O)Nc5c(F)cccc5F)c4)nc4ccccn34)n2)c(OC)cc1N1CCC(N2CCN(S(C)(=O)=O)CC2)CC1 [GSK1904529A]
- remaining activity at 1.25 µM ([1]; Well no.=5013, low concentration screen): 89.7%
- remaining activity at 3.75 µM ([2]; Well no.=5013, high concentration screen): 89.5%

SMILES: O=C1C(=O)N(Cc2ccc(Cl)c(Cl)c2)c2ccccc21 [Apoptosis Activator 2]
- remaining activity at 1.25 µM ([1]; Well no.=5259, low concentration screen): 98.8%
- remaining activity at 3.75 µM ([2]; Well no.=5259, high concentration screen): 95.7%

SMILES: CC(=O)NCCCC[C@H](N)C(=O)O [Nepsilon-Acetyl-L-lysine]
- remaining activity at 1.25 µM ([1]; Well no.=6211, low concentration screen): 116%
- remaining activity at 3.75 µM ([2]; Well no.=6211, high concentration screen): 106%

SMILES: O=C(O)CSc1nnc(Br)n1-c1ccc(C2CC2)c2ccccc12 [Lesinurad]
- remaining activity at 1.25 µM ([1]; Well no.=8158, low concentration screen): 102%
- remaining activity at 3.75 µM ([2]; Well no.=8158, high concentration screen): 104%

SMILES: COC(C)(C)CCCC(C)C/C=C/C(C)=C/C(=O)O (centres unmarked) [Methoprene acid]
- remaining activity at 1.25 µM ([1]; Well no.=4438, low concentration screen): 98.3%
- remaining activity at 3.75 µM ([2]; Well no.=4438, high concentration screen): 100%

SMILES: CCC(C)(C)C(=O)N(O)Cc1ccccc1 [RIPA-56]
- remaining activity at 1.25 µM ([1]; Well no.=6210, low concentration screen): 90.8%
- remaining activity at 3.75 µM ([2]; Well no.=6210, high concentration screen): 92.1%

SMILES: CCN(CC)CCNC(=O)c1ccc(N)cc1 [Procainamide.HCl]
- remaining activity at 1.25 µM ([1]; Well no.=1645, low concentration screen): 108%
- remaining activity at 3.75 µM ([2]; Well no.=1645, high concentration screen): 107%

SMILES: O=c1[nH]c2ccccc2n1C1CCN(Cc2ccc(-c3[nH]c4cc5ncnc5cc4nc3-c3ccccc3)cc2)CC1 [Akt-I-1,2]
- remaining activity at 1.25 µM ([1]; Well no.=2755, low concentration screen): 101%
- remaining activity at 3.75 µM ([2]; Well no.=2755, high concentration screen): 98.5%

SMILES: CN1C(=O)N[C@H](Cc2c[nH]c3c(Cl)cccc23)C1=O [Necrostatin 2]
- remaining activity at 1.25 µM ([1]; Well no.=6916, low concentration screen): 99.4%
- remaining activity at 3.75 µM ([2]; Well no.=6916, high concentration screen): 98.6%

SMILES: C[C@@H](O)CCC[C@H](O)/C=C/[C@H]1[C@H](O)CC(=O)[C@@H]1C/C=C\CCCC(=O)O [19(R)-Hydroxy-prostaglandin E2]
- remaining activity at 1.25 µM ([1]; Well no.=4533, low concentration screen): 91.3%
- remaining activity at 3.75 µM ([2]; Well no.=4533, high concentration screen): 88.8%

SMILES: Cc1nc(C(=O)NCC(=O)O)c(O)c2ccc(Oc3ccccc3)cc12 [FG-4592]
- remaining activity at 1.25 µM ([1]; Well no.=4995, low concentration screen): 102%
- remaining activity at 3.75 µM ([2]; Well no.=4995, high concentration screen): 105%

SMILES: CC(C)[C@H](NC(=O)OCc1ccccc1)C(=O)N[C@H](C=O)Cc1ccccc1 [MDL 28170] (Cbz-Val-Phe-aldehyde)
- remaining activity at 1.25 µM ([1]; Well no.=790, low concentration screen): 106%
- remaining activity at 3.75 µM ([2]; Well no.=790, high concentration screen): 105%

SMILES: CCCCC/C=C\C/C=C\C/C=C\C/C=C\CCCC(=O)C(F)(F)F [AACOCF3]
- remaining activity at 1.25 µM ([1]; Well no.=4486, low concentration screen): 102%
- remaining activity at 3.75 µM ([2]; Well no.=4486, high concentration screen): 102%

SMILES: O=C(O)c1ccc(O)cc1O [2,4-Dihydroxybenzoic acid]
- remaining activity at 1.25 µM ([1]; Well no.=6781, low concentration screen): 102%
- remaining activity at 3.75 µM ([2]; Well no.=6781, high concentration screen): 101%

SMILES: O=c1oc(Cl)c(Cl)c2ccccc12 [3,4-Dichloroisocoumarin]
- remaining activity at 1.25 µM ([1]; Well no.=582, low concentration screen): 100%
- remaining activity at 3.75 µM ([2]; Well no.=582, high concentration screen): 103%

SMILES: C=CCc1cc(OC)c2c(c1)OCO2 [Myristicin]
- remaining activity at 1.25 µM ([1]; Well no.=3473, low concentration screen): 99%
- remaining activity at 3.75 µM ([2]; Well no.=3473, high concentration screen): 99.9%

SMILES: O=C(O)Cc1ccccc1O [2-Hydroxyphenylacetic acid]
- remaining activity at 1.25 µM ([1]; Well no.=6307, low concentration screen): 104%
- remaining activity at 3.75 µM ([2]; Well no.=6307, high concentration screen): 107%

SMILES: CC(=O)[C@]1(O)Cc2c(O)c3c(c(O)c2[C@@H](O[C@H]2C[C@H](N)[C@H](O)[C@H](C)O2)C1)C(=O)c1ccccc1C3=O [Idarubicin]
- remaining activity at 1.25 µM ([1]; Well no.=574, low concentration screen): 103%
- remaining activity at 1.25 µM ([1]; Well no.=1613, low concentration screen): 102%
- remaining activity at 3.75 µM ([2]; Well no.=574, high concentration screen): 102%
- remaining activity at 3.75 µM ([2]; Well no.=1613, high concentration screen): 103%

SMILES: O=c1c(-c2ccc(O)cc2)coc2cc(O[C@@H]3O[C@H](CO)[C@@H](O)[C@H](O)[C@H]3O)ccc12 [Daidzin]
- remaining activity at 1.25 µM ([1]; Well no.=3249, low concentration screen): 103%
- remaining activity at 3.75 µM ([2]; Well no.=3249, high concentration screen): 102%

SMILES: CCNc1ncnc2c1ncn2[C@@H]1O[C@H](CO)[C@@H](O)[C@H]1O [N6-Ethyladenosine]
- remaining activity at 1.25 µM ([1]; Well no.=7906, low concentration screen): 99.5%
- remaining activity at 1.25 µM ([1]; Well no.=8517, low concentration screen): 100%
- remaining activity at 3.75 µM ([2]; Well no.=7906, high concentration screen): 97.7%
- remaining activity at 3.75 µM ([2]; Well no.=8517, high concentration screen): 95.1%

SMILES: CCN(CC)C(=O)/C(C#N)=C/c1cc(O)c(O)c([N+](=O)[O-])c1 [Entacapone]
- remaining activity at 1.25 µM ([1]; Well no.=1888, low concentration screen): 96.2%
- remaining activity at 3.75 µM ([2]; Well no.=1888, high concentration screen): 93%

SMILES: CCC(=O)O[C@]1(C(=O)CCl)[C@@H](C)C[C@H]2[C@@H]3C[C@H](F)C4=CC(=O)C=C[C@]4(C)[C@@]3(F)[C@@H](O)C[C@@]21C [Halobetasol Propionate]
- remaining activity at 1.25 µM ([1]; Well no.=8250, low concentration screen): 94.9%
- remaining activity at 3.75 µM ([2]; Well no.=8250, high concentration screen): 91.1%

SMILES: CC(C)C[C@H]1C(=O)O[C@H](Cc2ccccc2)C(=O)N(C)[C@@H](CC(C)C)C(=O)O[C@H](C)C(=O)N(C)[C@@H](CC(C)C)C(=O)O[C@H](Cc2ccccc2)C(=O)N(C)[C@@H](CC(C)C)C(=O)O[C@H](C)C(=O)N1C [PF 1022A]
- remaining activity at 1.25 µM ([1]; Well no.=7942, low concentration screen): 101%
- remaining activity at 3.75 µM ([2]; Well no.=7942, high concentration screen): 114%

SMILES: CCc1cccc2c1c(O)c(C(=O)N(CC)c1ccccc1)c(=O)n2C [Paquinimod]
- remaining activity at 1.25 µM ([1]; Well no.=8373, low concentration screen): 92.6%
- remaining activity at 3.75 µM ([2]; Well no.=8373, high concentration screen): 92.5%

SMILES: O=P(O)(O)CP(=O)(O)OC[C@H]1O[C@@H](n2cnc3c(NCc4ccccc4)ncnc32)[C@H](O)[C@@H]1O [PSB-12379]
- remaining activity at 1.25 µM ([1]; Well no.=8745, low concentration screen): 105%
- remaining activity at 3.75 µM ([2]; Well no.=8745, high concentration screen): 105%

SMILES: CS(=O)(=O)CCNCc1ccc(-c2ccc3ncnc(Nc4ccc(OCc5cccc(F)c5)c(Cl)c4)c3c2)o1 [Lapatinib ditosylate]
- remaining activity at 1.25 µM ([1]; Well no.=1714, low concentration screen): 105%
- remaining activity at 3.75 µM ([2]; Well no.=1714, high concentration screen): 105%
